Assay results from patent US9957273B2, “5-substituted 7- [4-(2-pyridyl)phenylmethylamino] -3-isopropylpyrazolo4,3-D]pyrimidine derivatives, use thereof as medicaments, and pharmaceutical compositions” (USTAV EXPERIMENTALNI BOTANIKY AV CR, V.V.I., priority 2015, dated 2018).

Tested on: HL60 (human promyelocytic leukaemia)
Experiment: MTT cytotoxicity assay, leukemic cell line HL60
Format: cell-based
Conditions: Homo sapiens, HL-60, 72 h, three days
Excerpt: Cytotoxicity of the compounds is the major property determining their antileukemic efficacy in vivo. One of the parameters used, as the basis for cytotoxicity assays, is the metabolic activity of viable cells. For example, a microtiter assay, which uses (3-(4,5-dimethylthiazol-2-yl)-2,5-diphenyltetrazolium bromide (MTT), is widely used to quantitate cell proliferation and cytotoxicity. This assay is widely used in drug screening programs and in chemosensitivity testing. Because only metabolically active living cells reduce MTT to correspond purple formazan dye, these assays detect viable cells exclusively. The quantity of reduced MTT corresponds to the number of vital cells in the culture.
The compounds were assayed using the following leukemic cell lines: K562 (human chronic myelogenous leukaemia), HL60 (human promyelocytic leukaemia), CEM (human lymphoblastoid leukaemia), THP1 (human monocytic cell line), MV4; 11 (acute myelocytic leukemia). All cell lines were grown in RPMI medium supplemented with fetal bovine serum and L-glutamine and maintained at 37° C. in a humidified atmosphere with 5% CO2. For cytotoxicity assays, 2000-5000 cells were seeded into each well of 96 well plate, allowed to stabilize for at least 8 h and then tested compounds were added at various concentrations ranging from 100 to 0.01 μM in triplicates. After three days, MTT solution (5 mg/ml; Sigma, St. Louis, USA) was added to cells and medium was replaced with DMSO after five hours. The absorbance was measured at 620 nm by employing a microplate reader. MTT assays were repeated 3 times for each drug application and untreated cells were used as reference.

SMILES: CC(C)c1[nH]nc2c(NCc3ccc(-c4ccccn4)cc3)nc(NCC(O)CN)nc12 (stereo not shown) [Compound 45]
- IC50: 0.62 µM
